# Measurements taken from ChEMBL document CHEMBL4190351, “Synthesis and biological evaluation of novel 6,11-dihydro-5H-benzo[e]pyrimido- [5,4-b][1,4]diazepine derivatives as potential c-Met inhibitors” (Eur J Med Chem, 2017).
# What was measured:
# [1] = biological target: Hepatocyte growth factor receptor (Homo sapiens, UniProt P08581); assay: Inhibition of cMet (unknown origin) using poly(Glu, Tyr)4:1 substrate and ATP incubated fro 60 mins by ELISA
# [2] = tested on: PC-3; assay: Cytotoxicity in human PC3 cells incubated for 72 hrs by sulforhodamine B assay; conditions: PC-3, 72 h
# [3] = tested on: HepG2; assay: Cytotoxicity in human HepG2 cells incubated for 72 hrs by sulforhodamine B assay; conditions: HepG2, 72 h
# [4] = tested on: CAKI-1; assay: Cytotoxicity in human Caki1 cells incubated for 72 hrs by sulforhodamine B assay; conditions: CAKI-1, 72 h
# [5] = tested on: PANC-1; assay: Cytotoxicity in human PANC1 cells incubated for 72 hrs by sulforhodamine B assay; conditions: PANC-1, 72 h
# [6] = tested on: CAKI-1; assay: Antitumor activity in human Caki1 cells xenografted in nude mouse assessed as inhibition of tumor growth at 20 mg/kg, ig qd for 21 days; format: functional; conditions: CAKI-1, po, 504 h, read-out: TGI
# [7] = Elimination half life in Sprague-Dawley rat at 4 mg/kg, iv measured after 5 mins to 4 hrs post dose by LC-MS/MS method; format: ADME, organism-based; conditions: in vivo, read-out: beta t1/2 (converted)
# [8] = Toxicity in KM mouse assessed as mouse survival at 820 mg/kg, po administered as single dose measured daily for 14 days (reference value: 100%); format: organism-based; conditions: in vivo
# [9] = Apparent clearance during terminal phase in Sprague-Dawley rat at 20 mg/kg, po measured after 5 mins to 4 hrs post dose by LC-MS/MS method; format: ADME, organism-based; conditions: in vivo, read-out: CLz/F (converted)
# [10] = biological target: T1, Receptor-type tyrosine-protein kinase FLT3 (Homo sapiens, UniProt P36888); assay: Inhibition of FLT3 (unknown origin)
# T1 sequence (P36888 whole entry): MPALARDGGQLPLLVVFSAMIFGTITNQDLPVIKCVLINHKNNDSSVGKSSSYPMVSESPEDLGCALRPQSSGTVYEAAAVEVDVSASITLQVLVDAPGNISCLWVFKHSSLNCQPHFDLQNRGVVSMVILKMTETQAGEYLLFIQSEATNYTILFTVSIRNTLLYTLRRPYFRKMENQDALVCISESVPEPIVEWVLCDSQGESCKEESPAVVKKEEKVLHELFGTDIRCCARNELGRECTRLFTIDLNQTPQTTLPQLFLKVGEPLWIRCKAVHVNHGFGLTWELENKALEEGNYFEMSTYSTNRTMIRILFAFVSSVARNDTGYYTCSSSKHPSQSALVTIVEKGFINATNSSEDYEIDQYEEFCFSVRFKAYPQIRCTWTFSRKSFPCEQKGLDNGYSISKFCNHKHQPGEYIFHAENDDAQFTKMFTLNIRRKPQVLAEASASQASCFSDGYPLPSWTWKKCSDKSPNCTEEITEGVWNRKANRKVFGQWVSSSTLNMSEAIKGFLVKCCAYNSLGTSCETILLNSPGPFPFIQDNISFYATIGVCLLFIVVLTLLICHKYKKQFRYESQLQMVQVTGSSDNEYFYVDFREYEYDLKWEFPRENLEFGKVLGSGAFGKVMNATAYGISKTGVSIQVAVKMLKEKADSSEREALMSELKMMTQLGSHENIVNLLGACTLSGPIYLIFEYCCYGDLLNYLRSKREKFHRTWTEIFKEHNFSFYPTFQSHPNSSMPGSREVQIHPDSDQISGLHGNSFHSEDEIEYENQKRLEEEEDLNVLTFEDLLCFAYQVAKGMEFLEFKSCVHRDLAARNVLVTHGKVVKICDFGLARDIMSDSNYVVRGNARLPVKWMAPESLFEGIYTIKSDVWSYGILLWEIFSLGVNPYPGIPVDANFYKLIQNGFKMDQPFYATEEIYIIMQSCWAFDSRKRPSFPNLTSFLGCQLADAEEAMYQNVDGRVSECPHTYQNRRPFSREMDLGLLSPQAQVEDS
# [11] = AUC (0 to t) in Sprague-Dawley rat at 4 mg/kg, iv measured after 5 mins to 4 hrs post dose by LC-MS/MS method; format: ADME, organism-based; set-up: time 0.083-4 hr, dose 4 mg/kg, route intravenous; conditions: in vivo
# [12] = Elimination half life in Sprague-Dawley rat at 20 mg/kg, po measured after 5 mins to 4 hrs post dose by LC-MS/MS method; format: ADME, organism-based; conditions: in vivo, read-out: beta t1/2 (converted)
# [13] = Cmax in Sprague-Dawley rat at 4 mg/kg, iv measured after 5 mins to 4 hrs post dose by LC-MS/MS method; format: ADME, organism-based; set-up: dose 4 mg/kg, route intravenous; conditions: in vivo
# [14] = Apparent volume of distribution during terminal phase in Sprague-Dawley rat at 20 mg/kg, po measured after 5 mins to 4 hrs post dose by LC-MS/MS method; format: ADME, organism-based; conditions: in vivo, read-out: Vz/F
# [15] = biological target: Proto-oncogene tyrosine-protein kinase receptor Ret (Homo sapiens, UniProt P07949); assay: Inhibition of RET (unknown origin)
# Chain of Proto-oncogene tyrosine-protein kinase receptor Ret (P07949 whole entry): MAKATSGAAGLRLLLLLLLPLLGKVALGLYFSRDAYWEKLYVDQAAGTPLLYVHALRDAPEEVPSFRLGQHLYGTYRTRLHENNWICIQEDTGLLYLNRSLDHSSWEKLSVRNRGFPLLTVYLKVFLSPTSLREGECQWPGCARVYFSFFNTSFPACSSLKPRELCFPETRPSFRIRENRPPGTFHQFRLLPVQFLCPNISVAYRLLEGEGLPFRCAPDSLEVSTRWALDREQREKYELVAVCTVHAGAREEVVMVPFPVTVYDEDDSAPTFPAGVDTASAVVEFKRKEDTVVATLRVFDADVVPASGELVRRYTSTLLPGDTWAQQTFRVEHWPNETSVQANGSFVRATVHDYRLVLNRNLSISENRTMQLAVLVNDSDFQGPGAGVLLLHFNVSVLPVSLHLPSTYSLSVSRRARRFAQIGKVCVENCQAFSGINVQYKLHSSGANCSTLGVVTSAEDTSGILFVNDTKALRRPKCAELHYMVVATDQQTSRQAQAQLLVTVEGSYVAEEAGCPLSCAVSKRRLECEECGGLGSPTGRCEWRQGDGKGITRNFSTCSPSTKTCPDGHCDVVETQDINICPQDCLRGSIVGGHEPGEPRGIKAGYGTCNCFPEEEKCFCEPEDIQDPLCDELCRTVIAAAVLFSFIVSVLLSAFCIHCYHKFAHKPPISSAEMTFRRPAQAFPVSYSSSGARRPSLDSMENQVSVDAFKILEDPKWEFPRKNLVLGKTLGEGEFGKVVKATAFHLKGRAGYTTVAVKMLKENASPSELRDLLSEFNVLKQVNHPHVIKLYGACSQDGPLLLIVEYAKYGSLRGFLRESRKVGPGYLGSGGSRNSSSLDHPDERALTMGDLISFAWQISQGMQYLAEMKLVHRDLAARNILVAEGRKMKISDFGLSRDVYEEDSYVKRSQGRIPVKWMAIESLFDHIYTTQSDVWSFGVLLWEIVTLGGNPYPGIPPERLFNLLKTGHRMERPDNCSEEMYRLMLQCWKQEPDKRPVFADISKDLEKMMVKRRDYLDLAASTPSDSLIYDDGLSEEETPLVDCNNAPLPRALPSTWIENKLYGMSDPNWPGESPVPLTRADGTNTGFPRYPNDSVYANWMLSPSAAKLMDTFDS
# [16] = tested on: CAKI-1; assay: Antitumor activity in human Caki1 cells xenografted in nude mouse assessed as inhibition of tumor growth at 80 mg/kg, ig qd for 21 days; format: functional; conditions: CAKI-1, po, 504 h, read-out: TGI
# [17] = AUC (0 to infinity) in Sprague-Dawley rat at 4 mg/kg, iv measured after 5 mins to 4 hrs post dose by LC-MS/MS method; format: ADME, organism-based; set-up: dose 4 mg/kg, time infinity, route intravenous; conditions: in vivo
# [18] = Toxicity in KM mouse assessed as mouse survival at 720 mg/kg, po administered as single dose measured daily for 14 days (reference value: 100%); format: organism-based; conditions: in vivo
# [19] = biological target: Epidermal growth factor receptor (Homo sapiens, UniProt P00533); assay: Inhibition of EGFR (unknown origin)
# [20] = tested on: Rattus norvegicus; assay: Apparent clearance during terminal phase in Sprague-Dawley rat at 4 mg/kg, iv measured after 5 mins to 4 hrs post dose by LC-MS/MS method; format: ADME, organism-based; conditions: in vivo
# [21] = biological target: Mast/stem cell growth factor receptor Kit (Homo sapiens, UniProt P10721); assay: Inhibition of cKIT (unknown origin)
# Chain of Mast/stem cell growth factor receptor Kit (P10721 whole entry): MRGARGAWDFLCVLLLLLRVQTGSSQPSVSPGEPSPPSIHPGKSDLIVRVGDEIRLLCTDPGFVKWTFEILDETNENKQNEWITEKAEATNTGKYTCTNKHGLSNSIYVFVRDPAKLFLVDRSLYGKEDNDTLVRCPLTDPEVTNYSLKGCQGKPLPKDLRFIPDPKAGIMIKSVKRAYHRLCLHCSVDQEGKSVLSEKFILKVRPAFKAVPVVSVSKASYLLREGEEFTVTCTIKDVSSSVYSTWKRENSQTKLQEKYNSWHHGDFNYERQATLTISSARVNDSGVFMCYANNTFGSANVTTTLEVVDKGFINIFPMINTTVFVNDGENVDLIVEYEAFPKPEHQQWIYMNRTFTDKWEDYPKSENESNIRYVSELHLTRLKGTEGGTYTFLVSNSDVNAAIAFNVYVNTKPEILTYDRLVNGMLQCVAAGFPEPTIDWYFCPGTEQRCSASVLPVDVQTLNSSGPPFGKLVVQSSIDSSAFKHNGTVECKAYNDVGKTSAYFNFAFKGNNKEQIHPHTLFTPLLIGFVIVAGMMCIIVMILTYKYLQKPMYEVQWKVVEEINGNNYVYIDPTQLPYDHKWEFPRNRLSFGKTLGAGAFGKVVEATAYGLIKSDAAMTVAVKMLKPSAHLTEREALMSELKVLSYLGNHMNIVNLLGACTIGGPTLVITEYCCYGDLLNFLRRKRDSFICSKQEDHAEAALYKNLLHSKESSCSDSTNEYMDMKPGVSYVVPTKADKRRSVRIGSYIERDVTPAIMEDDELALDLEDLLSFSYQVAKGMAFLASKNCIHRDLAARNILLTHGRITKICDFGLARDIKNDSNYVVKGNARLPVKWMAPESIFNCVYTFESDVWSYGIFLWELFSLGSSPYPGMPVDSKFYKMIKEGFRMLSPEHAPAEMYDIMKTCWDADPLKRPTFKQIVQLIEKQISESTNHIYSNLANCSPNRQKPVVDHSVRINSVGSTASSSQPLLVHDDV
# [22] = tested on: Mus musculus; assay: Toxicity in KM mouse assessed as mouse mortality at 520 mg/kg, po administered as single dose measured daily for 14 days; format: organism-based; conditions: in vivo, 336 h
# [23] = Toxicity in KM mouse assessed as mouse survival at 920 mg/kg, po administered as single dose measured daily for 14 days (reference value: 100%); format: organism-based; conditions: in vivo
# [24] = biological target: Vascular endothelial growth factor receptor 2 (Homo sapiens, UniProt P35968); assay: Inhibition of VEGFR2 (unknown origin)
# Chain of Vascular endothelial growth factor receptor 2 (P35968 whole entry): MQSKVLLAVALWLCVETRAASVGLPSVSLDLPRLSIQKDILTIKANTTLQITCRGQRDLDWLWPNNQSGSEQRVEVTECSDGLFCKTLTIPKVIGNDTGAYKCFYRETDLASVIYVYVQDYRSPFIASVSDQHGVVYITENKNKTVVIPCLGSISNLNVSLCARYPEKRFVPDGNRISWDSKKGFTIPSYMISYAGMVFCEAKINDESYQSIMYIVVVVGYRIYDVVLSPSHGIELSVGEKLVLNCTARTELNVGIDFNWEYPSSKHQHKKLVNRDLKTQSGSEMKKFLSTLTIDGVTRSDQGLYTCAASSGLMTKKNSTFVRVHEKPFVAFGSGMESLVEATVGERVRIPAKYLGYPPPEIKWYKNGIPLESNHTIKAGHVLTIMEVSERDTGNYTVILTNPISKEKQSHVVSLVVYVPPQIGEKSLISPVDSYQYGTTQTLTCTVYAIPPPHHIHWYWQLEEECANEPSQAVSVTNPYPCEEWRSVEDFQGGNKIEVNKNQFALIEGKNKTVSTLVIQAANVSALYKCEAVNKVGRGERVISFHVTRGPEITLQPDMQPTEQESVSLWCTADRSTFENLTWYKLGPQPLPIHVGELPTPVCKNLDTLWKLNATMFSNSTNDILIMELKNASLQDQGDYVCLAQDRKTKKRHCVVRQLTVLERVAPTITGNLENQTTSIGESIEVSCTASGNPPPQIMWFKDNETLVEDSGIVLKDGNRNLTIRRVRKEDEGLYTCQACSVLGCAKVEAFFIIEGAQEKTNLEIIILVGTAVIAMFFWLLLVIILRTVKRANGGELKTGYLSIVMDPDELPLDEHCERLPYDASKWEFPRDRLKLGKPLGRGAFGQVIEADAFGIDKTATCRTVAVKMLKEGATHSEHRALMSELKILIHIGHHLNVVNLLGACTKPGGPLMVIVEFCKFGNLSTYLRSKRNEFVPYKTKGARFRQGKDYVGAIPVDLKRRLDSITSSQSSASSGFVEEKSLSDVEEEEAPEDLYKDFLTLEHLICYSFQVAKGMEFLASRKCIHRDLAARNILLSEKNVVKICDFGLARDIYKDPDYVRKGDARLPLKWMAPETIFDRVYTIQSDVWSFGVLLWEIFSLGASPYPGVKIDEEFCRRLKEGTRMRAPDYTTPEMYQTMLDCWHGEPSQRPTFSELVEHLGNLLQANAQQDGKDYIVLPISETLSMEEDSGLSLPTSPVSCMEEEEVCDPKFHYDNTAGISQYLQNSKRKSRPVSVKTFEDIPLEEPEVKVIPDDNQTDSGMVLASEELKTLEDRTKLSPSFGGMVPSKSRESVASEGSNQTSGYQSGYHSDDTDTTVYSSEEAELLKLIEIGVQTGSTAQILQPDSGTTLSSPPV
# [25] = Cmax in Sprague-Dawley rat at 20 mg/kg, po measured after 5 mins to 4 hrs post dose by LC-MS/MS method; format: ADME, organism-based; set-up: dose 20 mg/kg, route oral; conditions: in vivo
# [26] = Toxicity in KM mouse assessed as mouse survival at 620 mg/kg, po administered as single dose measured daily for 14 days (reference value: 100%); format: organism-based; conditions: in vivo
# [27] = Toxicity in KM mouse assessed as mouse survival at 420 mg/kg, po administered as single dose measured daily for 14 days (reference value: 100%); format: organism-based; conditions: in vivo
# [28] = tested on: Mus musculus; assay: Toxicity in KM mouse assessed as mouse mortality at 620 mg/kg, po administered as single dose measured daily for 14 days; format: organism-based; conditions: in vivo, 336 h
# [29] = tested on: CAKI-1; assay: Antitumor activity in human Caki1 cells xenografted in nude mouse assessed as inhibition of tumor growth at 40 mg/kg, ig qd for 21 days; format: functional; conditions: CAKI-1, po, 504 h, read-out: TGI
# [30] = Oral bioavailability in Sprague-Dawley rat at 20 mg/kg measured after 5 mins to 4 hrs post dose by LC-MS/MS method; format: ADME, organism-based; conditions: in vivo
# [31] = Tmax in Sprague-Dawley rat at 20 mg/kg, po measured after 5 mins to 4 hrs post dose by LC-MS/MS method; format: ADME, organism-based; conditions: in vivo
# [32] = tested on: Mus musculus; assay: Toxicity in human Caki1 cells xenografted nude mouse assessed as drug tolerance at 20 to 80 mg/kg, ig qd for 21 days; format: organism-based; conditions: in vivo, po, 504 h
# [33] = AUC (0 to t) in Sprague-Dawley rat at 20 mg/kg, po measured after 5 mins to 4 hrs post dose by LC-MS/MS method; format: ADME, organism-based; set-up: time 0.083-4 hr, dose 20 mg/kg, route oral; conditions: in vivo
# [34] = MRT (0 to t) in Sprague-Dawley rat at 20 mg/kg, po measured after 5 mins to 4 hrs post dose by LC-MS/MS method; format: ADME, organism-based; conditions: in vivo
# [35] = MRT (0 to t) in Sprague-Dawley rat at 4 mg/kg, iv measured after 5 mins to 4 hrs post dose by LC-MS/MS method; format: ADME, organism-based; conditions: in vivo
# [36] = tested on: Rattus norvegicus; assay: Apparent volume of distribution during terminal phase in Sprague-Dawley rat at 4 mg/kg, iv measured after 5 mins to 4 hrs post dose by LC-MS/MS method; format: ADME, organism-based; conditions: in vivo
# [37] = biological target: Voltage-gated inwardly rectifying potassium channel KCNH2 (Homo sapiens, UniProt Q12809); assay: Inhibition of human ERG at holding potential of -80 mV by cell based automated Qpatch method
# [38] = Toxicity in KM mouse assessed as mouse survival at 520 mg/kg, po administered as single dose measured daily for 14 days (reference value: 100%); format: organism-based; conditions: in vivo
# [39] = AUC (0 to infinity) in Sprague-Dawley rat at 20 mg/kg, po measured after 5 mins to 4 hrs post dose by LC-MS/MS method; format: ADME, organism-based; set-up: dose 20 mg/kg, time infinity, route oral; conditions: in vivo
# [40] = tested on: Mus musculus; assay: Toxicity in KM mouse assessed as mouse mortality at 420 mg/kg, po administered as single dose measured daily for 14 days; format: organism-based; conditions: in vivo, 336 h
# Chain of Hepatocyte growth factor receptor (P08581 whole entry): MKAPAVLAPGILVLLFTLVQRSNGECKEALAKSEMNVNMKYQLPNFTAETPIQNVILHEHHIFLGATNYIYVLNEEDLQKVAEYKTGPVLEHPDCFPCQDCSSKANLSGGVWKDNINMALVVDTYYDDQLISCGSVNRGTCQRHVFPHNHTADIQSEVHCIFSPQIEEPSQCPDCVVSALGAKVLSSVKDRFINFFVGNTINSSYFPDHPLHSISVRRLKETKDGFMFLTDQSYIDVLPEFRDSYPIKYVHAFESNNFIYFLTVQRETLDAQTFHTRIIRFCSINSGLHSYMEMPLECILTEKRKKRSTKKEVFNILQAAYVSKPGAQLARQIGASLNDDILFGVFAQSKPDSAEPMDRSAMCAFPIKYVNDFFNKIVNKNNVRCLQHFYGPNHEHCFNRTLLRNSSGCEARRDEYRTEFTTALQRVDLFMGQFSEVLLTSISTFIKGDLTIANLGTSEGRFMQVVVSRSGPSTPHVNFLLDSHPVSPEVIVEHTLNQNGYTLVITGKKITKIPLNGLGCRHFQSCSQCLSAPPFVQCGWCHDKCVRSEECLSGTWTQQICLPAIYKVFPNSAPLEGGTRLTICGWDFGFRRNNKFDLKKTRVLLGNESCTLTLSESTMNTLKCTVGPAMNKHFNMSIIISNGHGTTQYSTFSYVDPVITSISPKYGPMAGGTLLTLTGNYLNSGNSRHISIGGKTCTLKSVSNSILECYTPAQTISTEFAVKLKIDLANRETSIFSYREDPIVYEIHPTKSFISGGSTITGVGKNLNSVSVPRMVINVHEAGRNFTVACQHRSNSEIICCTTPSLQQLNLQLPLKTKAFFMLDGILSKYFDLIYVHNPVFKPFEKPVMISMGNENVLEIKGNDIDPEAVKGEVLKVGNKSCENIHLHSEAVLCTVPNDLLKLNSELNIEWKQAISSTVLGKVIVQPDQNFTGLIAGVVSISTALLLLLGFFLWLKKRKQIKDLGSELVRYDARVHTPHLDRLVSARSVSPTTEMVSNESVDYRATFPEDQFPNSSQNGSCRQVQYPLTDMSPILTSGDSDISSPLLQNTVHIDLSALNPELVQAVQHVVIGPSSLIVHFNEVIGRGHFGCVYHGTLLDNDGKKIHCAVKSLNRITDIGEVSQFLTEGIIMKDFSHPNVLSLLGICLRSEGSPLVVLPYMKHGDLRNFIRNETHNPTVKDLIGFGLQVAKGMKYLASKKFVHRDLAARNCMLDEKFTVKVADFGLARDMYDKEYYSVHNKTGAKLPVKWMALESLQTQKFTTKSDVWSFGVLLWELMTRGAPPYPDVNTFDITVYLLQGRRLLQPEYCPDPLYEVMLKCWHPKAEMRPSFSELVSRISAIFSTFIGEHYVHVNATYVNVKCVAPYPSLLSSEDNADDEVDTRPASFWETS
compound,measurement,setting,value
COc1cc2c(cc1OC)Nc1nccc(Oc3ccc(NC(=O)C4(C(=O)Nc5ccc(F)cc5)CC4)cc3)c1N=C2,IC50,[1],> 1000 nM
COc1cc2c(cc1OC)C(=O)Nc1c(ncnc1Oc1ccc(NC(=O)C3(C(=O)Nc4ccc(F)cc4)CC3)cc1)N2,IC50,[1],> 1000 nM
COc1cc2c(cc1OC)C(=O)Nc1c(ncnc1Oc1ccc(NC(=O)C3(C(=O)Nc4ccc(F)cc4)CC3)cc1F)N2,IC50,[1],> 1000 nM
COc1cc2c(cc1OC)Nc1ncnc(Oc3ccc(NC(=O)C4(C(=O)Nc5ccc(F)cc5)CC4)cc3)c1N(C)C2,IC50,[1],> 1000 nM
Cc1nc(Oc2ccc(NC(=O)C3(C(=O)Nc4ccc(F)cc4)CC3)cc2)c2c(n1)Oc1ccccc1CN2,IC50,[1],> 1000 nM
COc1cc2c(cc1OC)Nc1ncnc(Oc3ccc(NC(=O)C4(C(=O)Nc5ccc(F)cc5)CC4)cc3)c1N=C2,IC50,[2],1420 nM
same,IC50,[3],2070 nM
same,IC50,[4],1480 nM
same,IC50,[5],2720 nM
COc1cc2c(cc1OC)Nc1ncnc(Oc3ccc(NC(=O)C4(C(=O)Nc5ccc(F)cc5)CC4)cc3F)c1NC2,inhibition in vivo at 20 mg/kg,[6],51.1%
same,half-life,[7],0.91 h
same,survival at 336 h,[8],60%
same,CL/F,[9],48.8 mL/min/kg
same,IC50,[10],852 nM
same,AUC(0-t),[11],3590 ng·h/mL
same,half-life,[12],1.09 h
same,Cmax,[13],4660 ng/mL
same,Vd/F,[14],4.52 L/kg
same,IC50,[15],163 nM
same,inhibition in vivo at 80 mg/kg,[16],64.5%
same,AUC(0-inf),[17],3590 ng·h/mL
same,survival at 336 h,[18],80%
same,IC50,[19],268 nM
same,IC50,[2],4100 nM
same,CLz/F,[20],19 mL/min/kg
same,IC50,[21],259 nM
same,Activity,[22],Non-Toxic
same,survival at 336 h,[23],40%
same,IC50,[3],2950 nM
same,IC50,[24],62.5 nM
same,Cmax,[25],1930 ng/mL
same,survival at 336 h,[26],100%
same,survival at 336 h,[27],100%
same,Activity,[28],Non-Toxic
same,inhibition in vivo at 40 mg/kg,[29],58.9%
same,bioavailability,[30],39%
same,IC50,[1],24.4 nM
same,Tmax,[31],1.67 h
same,Activity,[32],Non-Toxic
same,AUC(0-t),[33],6990 ng·h/mL
same,MRT last,[34],2.36 h
same,MRT last,[35],1 h
same,Vz/F,[36],1.48 L/kg
same,IC50,[4],748 nM
same,IC50,[5],1860 nM
same,IC50,[37],> 40000 nM
same,survival at 336 h,[38],100%
same,AUC(0-inf),[39],7080 ng·h/mL
same,Activity,[40],Non-Toxic
COc1cc2c(cc1OC)Nc1nccc(Oc3ccc(NC(=O)C4(C(=O)Nc5ccc(F)cc5)CC4)cc3F)c1N=C2,IC50,[1],> 1000 nM
COc1cc2c(cc1OC)Nc1ncnc(Oc3ccc(NC(=O)C4(C(=O)Nc5ccc(F)cc5)CC4)cc3F)c1N(C)C2,IC50,[1],> 1000 nM
COc1cc2c(cc1OC)Nc1ncnc(Oc3ccc(NC(=O)C4(C(=O)Nc5ccc(F)cc5)CC4)cc3F)c1N=C2,IC50,[2],1610 nM
same,IC50,[3],1340 nM
same,IC50,[4],864 nM
same,IC50,[5],1660 nM
